# Measured values from patent publication US20210346527A1, “Combination Therapy” (Advanced Accelerator Applications (Italy) SRL, priority 2018, published 2021).
# System: CA20948 Tumor Model (neuroendocrine tumor cells)
# Test: In vivo therapy of PRRT +/- Olaparib, CA20948 tumor model
# Design: species or system BALB-c immunocompromised mice
# Text: FIG. 1 : In vivo therapy of PRRT +/− Olaparib. The FIG. 1A presents the tumor volume after injection in the presence of the vehicle (square), olaparib alone (full circle), PRRT alone (empty circle) or in combination with PARP inhibitor (triangle). The survival proportions are also shown in FIG. 1B after injection in the presence of the vehicle, olaparib alone, PRRT alone or in combination with PARP inhibitor.
# Combination therapies using CA20948 Tumor Model
# We have xenografted BALB-c immunocompromised mice with neuroendocrine tumor cells. To increase the window of opportunity, we have started PARP inhibitor administration two days prior to PRRT injection for in total 14 days.
Molecule,effect on survival (compared to vehicle),effect on tumor growth (compared to vehicle),speed of tumor regrowth (PRRT versus PRRT+olaparib groups),"start of tumor shrinkage (after injection, xenografted mice, PARP inhibitor started two days prior to PRRT injection, in total 14 days)"
"O=C(c1cc(Cc2n[nH]c(=O)c3ccccc23)ccc1F)N1CCN(C(=O)C2CC2)CC1 [olaparib, Olaparib]",No effect,No effect,–,–
Lutetium (177Lu) oxodotreotide [PRRT],–,–,the same in both groups,3 days
